Laboratory results as given in US12577245B2, “Sulfonyl benzamide derivatives as Bcl-2 inhibitors” (ASCENTAGE PHARMA (SUZHOU) CO., LTD., priority 2021, dated 2026).

Experiments:
Bcl-2 WT = Bcl-2 WT (Homo sapiens, UniProt P10415); assay: Bcl-2 WT inhibition, fluorescence polarization (Flu-BIM tracer) binding assay; settings: FP; 20 nM Bcl2, 5 nM Flu-BIM, 1 h incubation; read-out: Bcl-2 w.t. (FP)
MV-4-11 cells = assay: CCK-8 cell viability assay in MV-4-11 cells; assay type: cell-based; settings: Homo sapiens, MV4-11, 72 h, 10% FBS, 3 days
Protocol: MV-4-11 cells were obtained from University of Michigan. Cells were maintained in the RPMI-1640 medium with 10% FBS and 1% P/S at 37° C. and an atmosphere of 5% CO2.
• The effect of representative Compounds of the Disclosure on cell viability was determined using Cell Counting Kit-8 (CCK-8) assay (Shanghai Life iLab Biotech) according to the manufacturer's instructions. Each tested compound was serially diluted in culture medium, and 100 μL of the compound dilution was added to the corresponding well of the cell plate. 100 μL of MV-4-11 cell suspension (20000 cells/well) in culture medium were seeded into 96-well plates. The cells were incubated at 37° C. in an atmosphere of 5% CO2 for 3 days. At the end of 3 days, 20 μL of CCK-8 solution was added to each well of the plate and incubated for 1-4 hours. The plates were read at 450 nm on the Biotek plate reader. The readings were normalized to the vehicle cells, and the IC50 was calculated using GraphPad Prism 8 software.

RS4; 11Bcl-2-G101V cells = assay: CellTiter-Glo (CTG) cell viability assay in RS4;11-Bcl-2-G101V cells; assay type: cell-based; settings: 72 h, 10% FBS, 3 days
Protocol: RS4; 11Bcl-2-G101V, RS4; 11Bcl-2-D103E, RS4; 11Bcl-2-V156D and RS4; 11Bcl-2-G101V-D103E cells were obtained from Cobioer Biosciences. Cells were maintained in the RPMI-1640 medium with 10% FBS, 1% P/S and puromycin (1 μg/mL) at 37° C. and an atmosphere of 5% CO2.
• The effect of representative Compounds of the Disclosure on cell viability was determined using CellTiter-Glo® (CTG) luminescent cell viability assay (Promega, USA) according to the manufacturer's instructions. 95 μL of cell suspension (10000 cells/well) in culture medium were seeded into 96-well plates and cultured 4 hours. Each tested compound was serially diluted in blank culture medium, and 5 μL of the compound dilution was added to the corresponding well of the cell plate. After the addition of the tested compound, the cells were incubated at 37° C. in an atmosphere of 5% CO2 for 3 days. At the end of 3 days, 30 μL of CTG solution was added to each well of the plate and mix contents for 2 minutes on an orbital shaker. Allow the plate to incubate at room temperature for 15 mins to stabilize signal and record RLU on the Biotek plate reader. The readings were normalized to the vehicle cells, and the IC50 was calculated using GraphPad Prism 8 software.

Bcl-2 WT, sequence (P10415 whole entry): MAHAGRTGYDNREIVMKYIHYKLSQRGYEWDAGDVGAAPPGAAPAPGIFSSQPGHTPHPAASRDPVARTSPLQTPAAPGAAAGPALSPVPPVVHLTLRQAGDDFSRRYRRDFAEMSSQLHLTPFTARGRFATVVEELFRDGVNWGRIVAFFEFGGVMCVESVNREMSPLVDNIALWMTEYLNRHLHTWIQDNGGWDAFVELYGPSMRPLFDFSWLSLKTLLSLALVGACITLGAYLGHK

Compound	IC50 (Bcl-2 WT)	IC50 (MV-4-11 cells)	IC50 (RS4; 11Bcl-2-G101V cells)
CC1(C)CCC(CN2CCN(c3ccc(C(=O)NS(=O)(=O)c4ccc(NC[C@H]5COCCO5)c([N+](=O)[O-])c4)c(Oc4cnc5[nH]ccc5c4)c3)CC2)=C(c2cc(NC(=O)c3ccccc3)cs2)C1 [Example 18, (S)—N-((4-(((1,4-dioxan-2-yl)methyl)amino)-3-nitrophenyl)sulfonyl)-2-((1H-pyrrolo[2,3-b]pyridin-5-yl)oxy)-4-(4-((2-(4-benzamidothiophen-2-yl)-4,4-dimethylcyclohex-1-en-1-yl)methyl)piperazin-1-yl)benzamide]	37.5 nM	323 nM	2040 nM
CC1(C)CCC(CN2CCN(c3ccc(C(=O)NS(=O)(=O)c4ccc(NC[C@H]5COCCO5)c([N+](=O)[O-])c4)c(Oc4cnc5[nH]ccc5c4)c3)CC2)=C(c2cc(Nc3ncccn3)cs2)C1 [Example 19, (S)—N-((4-(((1,4-dioxan-2-yl)methyl)amino)-3-nitrophenyl)sulfonyl)-2-((1H-pyrrolo[2,3-b]pyridin-5-yl)oxy)-4-(4-((4,4-dimethyl-2-(4-(pyrimidin-2-ylamino)thiophen-2-yl)cyclohex-1-en-1-yl)methyl)piperazin-1-yl)benzamide]	24.6 nM	138 nM	980 nM
CC1(C)CCC(CN2CCN(c3ccc(C(=O)NS(=O)(=O)c4ccc(NCC5CCOCC5)c([N+](=O)[O-])c4)c(Oc4cnc5[nH]ccc5c4)c3)CC2)=C(c2csc(CN3CCOCC3)c2)C1 [Example 21, 2-((1H-pyrrolo[2,3-b]pyridin-5-yl)oxy)-4-(4-((4,4-dimethyl-2-(5-(morpholinomethyl)thiophen-3-yl)cyclohex-1-en-1-yl)methyl)piperazin-1-yl)-N-((3-nitro-4-(((tetrahydro-2H-pyran-4-yl)methyl)amino)phenyl)sulfonyl)benzamide]	27.1 nM	323 nM	3790 nM
CC1(C)CCC(CN2CCN(c3ccc(C(=O)NS(=O)(=O)c4ccc(NC[C@H]5COCCO5)c([N+](=O)[O-])c4)c(Oc4cnc5[nH]ccc5c4)c3)CC2)=C(c2cc(CN3CCOCC3)cs2)C1 [Example 22, (S)—N-((4-(((1,4-dioxan-2-yl)methyl)amino)-3-nitrophenyl)sulfonyl)-2-((1H-pyrrolo[2,3-b]pyridin-5-yl)oxy)-4-(4-((4,4-dimethyl-2-(4-(morpholinomethyl)thiophen-2-yl)cyclohex-1-en-1-yl)methyl)piperazin-1-yl)benzamide]	25.4 nM	83 nM	440 nM
CC1(C)CCC(CN2CCN(c3ccc(C(=O)NS(=O)(=O)c4ccc(NC[C@H]5CC[C@@](C)(O)CC5)c([N+](=O)[O-])c4)c(Oc4cnc5[nH]ccc5c4)c3)CC2)=C(c2cc(CN3CCOCC3)cs2)C1 [Example 23, 2-((1H-pyrrolo[2,3-b]pyridin-5-yl)oxy)-4-(4-((4,4-dimethyl-2-(4-(morpholinomethyl)thiophen-2-yl)cyclohex-1-en-1-yl)methyl)piperazin-1-yl)-N-((4-((((1s,4s)-4-hydroxy-4-methylcyclohexyl)methyl)amino)-3-nitrophenyl)sulfonyl)benzamide]	15.7 nM	180 nM	930 nM
CC1(C)CCC(CN2CCN(c3ccc(C(=O)NS(=O)(=O)c4ccc(NC[C@H]5CC[C@](C)(O)CC5)c([N+](=O)[O-])c4)c(Oc4cnc5[nH]ccc5c4)c3)CC2)=C(c2cc(CN3CCOCC3)cs2)C1 [Example 24, 2-((1H-pyrrolo[2,3-b]pyridin-5-yl)oxy)-4-(4-((4,4-dimethyl-2-(4-(morpholinomethyl)thiophen-2-yl)cyclohex-1-en-1-yl)methyl)piperazin-1-yl)-N-((4-((((1r,4r)-4-hydroxy-4-methylcyclohexyl)methyl)amino)-3-nitrophenyl)sulfonyl)benzamide]	15.9 nM	40 nM	340 nM
CC1(C)CCC(CN2CCN(c3ccc(C(=O)NS(=O)(=O)c4ccc(NCC5CCOCC5)c([N+](=O)[O-])c4)c(Oc4cnc5[nH]ccc5c4)c3)CC2)=C(c2ccsc2CN2CCOCC2)C1 [Example 25, 2-((1H-pyrrolo[2,3-b]pyridin-5-yl)oxy)-4-(4-((4,4-dimethyl-2-(2-(morpholinomethyl)thiophen-3-yl)cyclohex-1-en-1-yl)methyl)piperazin-1-yl)-N-((3-nitro-4-(((tetrahydro-2H-pyran-4-yl)methyl)amino)phenyl)sulfonyl)benzamide]	25.4 nM	225 nM	1810 nM
CC1(C)CCC(CN2CCN(c3ccc(C(=O)NS(=O)(=O)c4ccc(NCC5CCOCC5)c([N+](=O)[O-])c4)c(Oc4cnc5[nH]ccc5c4)c3)CC2)=C(c2ccc(CN3CCOCC3)s2)C1 [Example 26, 2-((1H-pyrrolo[2,3-b]pyridin-5-yl)oxy)-4-(4-((4,4-dimethyl-2-(5-(morpholinomethyl)thiophen-2-yl)cyclohex-1-en-1-yl)methyl)piperazin-1-yl)-N-((3-nitro-4-(((tetrahydro-2H-pyran-4-yl)methyl)amino)phenyl)sulfonyl)benzamide]	26.4 nM	246 nM	2590 nM
CC1(C)CCC(CN2CCN(c3ccc(C(=O)NS(=O)(=O)c4ccc(NC[C@H]5COCCO5)c([N+](=O)[O-])c4)c(Oc4cnc5[nH]ccc5c4)c3)CC2)=C(c2cc(CN3CCC(N4CCOCC4)CC3)cs2)C1 [Example 28, (S)—N-((4-(((1,4-dioxan-2-yl)methyl)amino)-3-nitrophenyl)sulfonyl)-2-((1H-pyrrolo[2,3-b]pyridin-5-yl)oxy)-4-(4-((4,4-dimethyl-2-(4-((4-morpholinopiperidin-1-yl)methyl)thiophen-2-yl)cyclohex-1-en-1-yl)methyl)piperazin-1-yl)benzamide]	20.7 nM	276 nM	1210 nM
C[C@@H]1CN(Cc2csc(C3=C(CN4CCN(c5ccc(C(=O)NS(=O)(=O)c6ccc(NC[C@H]7COCCO7)c([N+](=O)[O-])c6)c(Oc6cnc7[nH]ccc7c6)c5)CC4)CCC(C)(C)C3)c2)C[C@H](C)N1C [Example 29, N-((4-((((S)-1,4-dioxan-2-yl)methyl)amino)-3-nitrophenyl)sulfonyl)-2-((1H-pyrrolo[2,3-b]pyridin-5-yl)oxy)-4-(4-((4,4-dimethyl-2-(4-(((3S,5R)-3,4,5-trimethylpiperazin-1-yl)methyl)thiophen-2-yl)cyclohex-1-en-1-yl)methyl)piperazin-1-yl)benzamide]	26.7 nM	422 nM	750 nM
CC1(C)CCC(CN2CCN(c3ccc(C(=O)NS(=O)(=O)c4ccc(NC[C@H]5COCCO5)c([N+](=O)[O-])c4)c(Oc4cnc5[nH]ccc5c4)c3)CC2)=C(c2cc(CN3CCN4CCOC[C@H]4C3)cs2)C1 [Example 30, N-((4-((((S)-1,4-dioxan-2-yl)methyl)amino)-3-nitrophenyl)sulfonyl)-2-((1H-pyrrolo[2,3-b]pyridin-5-yl)oxy)-4-(4-((2-(4-(((R)-hexahydropyrazino[2,1-c][1,4]oxazin-8(1H)-yl)methyl)thiophen-2-yl)-4,4-dimethylcyclohex-1-en-1-yl)methyl)piperazin-1-yl)benzamide]	23.6 nM	564 nM	1440 nM
CC1(C)CCC(CN2CCN(c3ccc(C(=O)NS(=O)(=O)c4ccc(NC[C@H]5COCCO5)c([N+](=O)[O-])c4)c(Oc4cnc5[nH]ccc5c4)c3)CC2)=C(c2cc(CN3CCN(C4COC4)CC3)cs2)C1 [Example 31, (S)—N-((4-(((1,4-dioxan-2-yl)methyl)amino)-3-nitrophenyl)sulfonyl)-2-((1H-pyrrolo[2,3-b]pyridin-5-yl)oxy)-4-(4-((4,4-dimethyl-2-(4-((4-(oxetan-3-yl)piperazin-1-yl)methyl)thiophen-2-yl)cyclohex-1-en-1-yl)methyl)piperazin-1-yl)benzamide]	26 nM	147 nM	880 nM
CC1(C)CCC(CN2CCN(c3ccc(C(=O)NS(=O)(=O)c4ccc(NC[C@H]5COCCO5)c([N+](=O)[O-])c4)c(Oc4cnc5[nH]ccc5c4)c3)CC2)=C(c2cc(CN3CCC(F)(F)CC3)cs2)C1 [Example 32, (S)—N-((4-(((1,4-dioxan-2-yl)methyl)amino)-3-nitrophenyl)sulfonyl)-2-((1H-pyrrolo[2,3-b]pyridin-5-yl)oxy)-4-(4-((2-(4-((4,4-difluoropiperidin-1-yl)methyl)thiophen-2-yl)-4,4-dimethylcyclohex-1-en-1-yl)methyl)piperazin-1-yl)benzamide]	15.9 nM	80 nM	560 nM
